Experiments:
BTK = BTK (Homo sapiens (Human), UniProt Q06187); assay: ADP-Glo kinase biochemical assay, IC50 determination of BTK inhibitors; conditions: for IC50: ADP-Glo, ATP 50 uM, values given as bins
Procedure: Biological Properties: IC50 Determination of BTK Inhibitors in ADP-Glo Kinase Biochemical Assay
Those skilled in the art will appreciate that a variety of assay formats may be used to determine the activity of the compounds described herein.
ADP-Glo™ Kinase Assay (Cat. V9102, 10000 Tests), Components: • 1×50 ml ADP-Glo™ Reagent, • 1×100 ml Kinase Detection Buffer, • 1× Kinase Detection Substrate (Lyophilized), • 1×5 ml Ultra Pure ATP, 10 mM • 1×5 ml ADP, 10 mM
• Enzyme concentration: 8 ng/5 ul. • ATP concentration: 50 uM • Substrate (peptide) concentration: 0.2 mg/ml. • Reaction buffer composition: 40 mM Tris-HCl pH7.5, 10 mM MgCl2, 2 mM MnCl2, 0.1 mg/mL BSA, 0.05 mM DTT. • Test compound concentration: DMSO≤0.5%. Methods: Compound Dosage Gradient Solution Preparation: […]
1× and 2× assay buffer were made at first. BTK kinase was diluted with 1× assay buffer but substrate was diluted with 2× assay buffer. 1 ul of diluted compound was transferred into 384-well assay plate, and then 2.0 ul of enzyme solution was added, and spun at 2000 rpm for 1 min. This mixture was incubated at 24° C. for 30 mins. 2 ul of peptide substrate/ATP mixture was added into the assay plate to start the reaction. The mixture was mixed thoroughly and then the 384-well plate was spun and incubated at 24° C. for 60 mins. 5.0 ul of ADP-Glo Reagent was added to stop the kinase activity and deplete the ATP unconsumed, and the plate was mixed thoroughly and incubated at 24° C. for 40 min. Then, 10.0 ul of Kinase Detection reagent was added, and the plate was centrifuged and then kept at 24° C. for 30 min. The luminescence signal was read on Envision.
IC50 values of compounds were calculated from a 4-parameter fit using Equation (2): Y=Bottom+(TOP-Bottom)/(1+((C/X)^hillslope)) Equation (2)
In Equation 2, Y represents % inhibition, X is the log value of the test compound concentration. IC50 was the concentration of compound where half of maximal inhibition was achieved.
All data was analyzed with IDBS XLfit5 software (ID Business Solutions Ltd., UK).

SRC = SRC (Homo sapiens (Human), UniProt P12931); assay: kinase competition binding screen (liganded affinity beads, qPCR) at 1000 nM; conditions: BTK versus SRC
Chain of SRC (P12931 whole entry, looked up): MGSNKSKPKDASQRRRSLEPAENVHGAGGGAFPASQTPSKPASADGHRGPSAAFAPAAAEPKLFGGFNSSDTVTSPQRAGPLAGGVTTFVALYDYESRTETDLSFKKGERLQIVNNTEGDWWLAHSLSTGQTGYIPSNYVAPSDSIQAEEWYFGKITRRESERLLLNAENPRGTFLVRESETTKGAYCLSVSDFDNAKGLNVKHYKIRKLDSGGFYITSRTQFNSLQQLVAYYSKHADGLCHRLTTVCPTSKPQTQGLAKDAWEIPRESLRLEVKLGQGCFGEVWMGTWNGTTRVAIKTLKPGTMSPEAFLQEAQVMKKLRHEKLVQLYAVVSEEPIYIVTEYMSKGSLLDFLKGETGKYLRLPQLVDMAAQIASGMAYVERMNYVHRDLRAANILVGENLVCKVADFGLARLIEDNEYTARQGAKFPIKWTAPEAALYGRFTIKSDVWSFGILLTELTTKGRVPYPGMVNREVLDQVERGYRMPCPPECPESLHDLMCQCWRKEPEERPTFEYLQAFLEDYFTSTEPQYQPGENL

Chain of BTK (Q06187 whole entry): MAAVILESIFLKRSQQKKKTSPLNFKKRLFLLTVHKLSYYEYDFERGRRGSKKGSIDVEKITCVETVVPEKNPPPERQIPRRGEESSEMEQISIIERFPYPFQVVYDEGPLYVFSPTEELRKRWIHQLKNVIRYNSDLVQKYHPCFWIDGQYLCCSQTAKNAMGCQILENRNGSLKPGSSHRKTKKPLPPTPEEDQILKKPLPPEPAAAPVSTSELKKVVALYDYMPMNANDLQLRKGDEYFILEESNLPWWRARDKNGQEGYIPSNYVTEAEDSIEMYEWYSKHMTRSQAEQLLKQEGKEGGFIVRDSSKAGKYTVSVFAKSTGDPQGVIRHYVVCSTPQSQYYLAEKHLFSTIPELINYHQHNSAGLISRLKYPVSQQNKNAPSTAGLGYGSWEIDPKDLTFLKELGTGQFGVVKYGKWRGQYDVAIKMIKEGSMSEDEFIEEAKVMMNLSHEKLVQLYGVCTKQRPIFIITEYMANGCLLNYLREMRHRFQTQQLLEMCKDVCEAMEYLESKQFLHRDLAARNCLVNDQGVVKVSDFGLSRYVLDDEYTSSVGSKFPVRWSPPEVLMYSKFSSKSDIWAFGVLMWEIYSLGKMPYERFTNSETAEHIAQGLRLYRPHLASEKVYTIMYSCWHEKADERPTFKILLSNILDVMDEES

| SMILES | IC50 (BTK) | improvement in potency over Analogs 1 and 2 (BTK; BTK, head-to-head assays) | Fold Difference (SRC) |
| --- | --- | --- | --- |
| C=CC(=O)N1CCN(c2ccc(C(N)=O)c(-c3ccc(Oc4ccccc4)cc3)n2)CC1 [Example 5, 6-(4-acryloylpiperazin-1-yl)-2-(4-phenoxyphenyl)nicotinamide] | < 500 nM | ~100 × | >100x |
| C=CC(=O)N1CCCC(c2nc(-c3ccc(Oc4ccccc4)cc3)c(C(N)=O)o2)C1 (stereo not drawn) [Example 42, 2-(1-acryloylpiperidin-3-yl)-4-(4-phenoxyphenyl)oxazole-5-carboxamide] | < 500 nM |  |  |
| C=CC(=O)NC1CCN(c2ccc(C(N)=O)c(-c3ccc(Oc4ccccc4)cc3)n2)CC1 [Example 9, 6-(4-acrylamidopiperidin-1-yl)-2-(4-phenoxyphenyl)nicotinamide] | 500 to 1000 nM |  |  |
| C=CC(=O)N1CCC(c2nc(-c3ccc(Oc4ccccc4)cc3)c(C(N)=O)o2)C1 (stereo not drawn) [Example 43, 2-(1-acryloylpyrrolidin-3-yl)-4-(4-phenoxyphenyl)oxazole-5-carboxamide] | < 500 nM |  |  |
| C=CC(=O)N1CCC(c2ncc(C(N)=O)c(-c3ccc(Oc4ccccc4)cc3)n2)C1 (stereo not drawn) [Example 22, 2-(1-acryloylpyrrolidin-3-yl)-4-(4-phenoxyphenyl)pyrimidine-5-carboxamide] | < 500 nM |  |  |
| NC(=O)c1ccc(N2CCNCC2)nc1-c1ccc(Oc2ccccc2)cc1 [Example 4, 2-(4-phenoxyphenyl)-6-(piperazin-1-yl)nicotinamide] | ≥ 1000 nM |  |  |
| C=CC(=O)N1CCN(c2ccc(C(N)=O)c(-c3ccc(Oc4ccccc4)cc3)c2)CC1 [Example 57, 5-(4-acryloylpiperazin-1-yl)-4′-phenoxybiphenyl-2-carboxamide] | < 500 nM |  |  |
